Results reported in publication PMC4585259 (Frontiers in Pharmacology, 2015).
Read-outs that look alike come from different tables or passages of the source.

Biological target: T1, rNav1.2 sodium channels (Rattus norvegicus, UniProt P04775)
T1 construct: host or cells: HEK-293
Experiment: QPatch automated patch clamp, inhibition of sodium currents evoked by 5 Hz trains at three extracellular pH values
Assay type: cell-based
Details: for class of pH-dependence pattern (cluster analysis): Ward's method on 18 variables of affinity, reversibility, onset; for KD app, effect of acidic medium: pH = 6.0 vs neutral, increased KD app = decreased apparent affinity
Method: HEK-293 cells stably expressing rNav1.2 sodium channels were obtained from NeuroSearch (Ballerup, Denmark). The cells were grown in Dulbecco's modified Eagle medium supplemented with 10% FBS. Prior to use, the cells were trypsinized and subsequently kept in suspension in the QPatch cell storage facility in CHO-S- SFM-II medium.
Composition of the extracellular solution was: (in mM): 140 NaCl, 3 KCl, 1 CaCl2 1 MgCl2, 0.1 CdCl2, 20 TEA-Cl, 5 HEPES, adjusted to pH 7.3, Osmolality: 320 mOsm. […] Drugs were synthesized in Gedeon Richter Plc. […] The full list of drugs, with their three-letter codes, concentration, as well as their main therapeutic indication and main mechanism of action are shown in Table 1. […] The choice of concentrations used in this study may seem unusually high.
Data were sampled at a frequency of 25 kHz and filtered at 5 kHz. Junction potential was calculated to be −11 mV and was corrected for. […] Cells having membrane resistance < 500 MOhm, series resistance > 9 MOhm, or capacitance > 22 pF were excluded from analysis. The experimental protocol was also identical to the one used in our previous study: sodium channels were activated by 5 Hz trains of 5 depolarizations (−90 to −10 mV) repeated in every 20 s. In this study, however, the same control–drug-application–washout sequence was repeated four times: at neutral, acidic, alkalic, and again neutral pH. The peak amplitudes of sodium currents throughout the whole experiment are shown plotted against time in Figure 1 and Supplementary Figure 1.
Initial analysis, including subtraction of leak and capacitive artifacts, as well as peak detection were done in the QPatch software. […] All experiments were normalized to the amplitude of the current evoked by the first depolarization of the last train under control conditions. […] For all four drug applications in an experiment, apparent affinity, onset and offset time constants as well as reversibility values were calculated. […] (This method is equivalent to applying the Lineweaver-Burk plot method using a single concentration.) Reversibility values were calculated from control (c), inhibited (i), and wash-out (w) amplitudes as follows: Reversibility = (w-i)/(c-i). Reversibility values should not be regarded as experimental platform-independent properties of compounds. […] However, reversibility values are a valuable source of information regarding physicochemical differences between individual drugs, or between effects of the same drug under different extracellular pH conditions. Onset and offset time constants were determined by single exponential fitting to individual experiments. For neutral pH numerical data were given as the average of the data from the first and the last drug applications. Thin black lines on Figure 1 and Supplemental Figure 1 show the average of five fitted exponentials, (not the exponential fitted to the averaged normalized amplitudes). The numerical values of apparent affinity, onset and offset time constants and reversibility are shown in Table 2, and their relative position is illustrated in Figure 2. Affinity and time constant values were logarithmically transformed for statistics, therefore we show their geometric mean. For recovery data no transformation was done, and we show arithmetic mean values. Significance values were calculated using paired, two-tailed Student's t-test based on five pairs of apparent affinity (log transform), time constant (log transform), or reversibility values obtained from five individual experiments. Because of the large number of comparisons in this study, we accepted p < 0.01 as significant. Cluster analysis was done using Ward's minimum variance method, with Euclidean distance measure. Data were normalized by subtracting the mean (after logarithmic transformation in the case of apparent affinity and time constants), and dividing by the standard deviation.

[1] = pH 6.0, concentration (lidocaine 300 μM, memantine 30 μM)
[2] = pH 6.0, higher concentration: lidocaine 1000 μM, memantine 100 μM
[3] = pH 6.0, higher concentration: lidocaine 1000 μM, memantine 100 μM, read-out: apparent affinity
[4] = pH 6.0, single concentration (lidocaine 300 μM, memantine 30 μM), geometric mean of 5, read-out: apparent affinity
[5] = pH 7.3, concentration (lidocaine 300 μM, memantine 30 μM)
[6] = pH 7.3, higher concentration: lidocaine 1000 μM, memantine 100 μM
[7] = pH 7.3, higher concentration: lidocaine 1000 μM, memantine 100 μM, read-out: apparent affinity
[8] = pH 7.3, single concentration (lidocaine 300 μM, memantine 30 μM), geometric mean of 5, read-out: apparent affinity
[9] = pH 8.6, concentration (lidocaine 300 μM, memantine 30 μM)
[10] = pH 8.6, higher concentration: lidocaine 1000 μM, memantine 100 μM
[11] = pH 8.6, higher concentration: lidocaine 1000 μM, memantine 100 μM, read-out: apparent affinity
[12] = pH 8.6, single concentration (lidocaine 300 μM, memantine 30 μM), geometric mean of 5, read-out: apparent affinity
[13] = pH=6.0, cc 300 mM, read-out: Apparent Affinity
[14] = pH=7.3, cc 300 mM, read-out: Apparent Affinity
[15] = pH=8.6, cc 300 mM, read-out: Apparent Affinity

T1 sequence (P04775 whole entry): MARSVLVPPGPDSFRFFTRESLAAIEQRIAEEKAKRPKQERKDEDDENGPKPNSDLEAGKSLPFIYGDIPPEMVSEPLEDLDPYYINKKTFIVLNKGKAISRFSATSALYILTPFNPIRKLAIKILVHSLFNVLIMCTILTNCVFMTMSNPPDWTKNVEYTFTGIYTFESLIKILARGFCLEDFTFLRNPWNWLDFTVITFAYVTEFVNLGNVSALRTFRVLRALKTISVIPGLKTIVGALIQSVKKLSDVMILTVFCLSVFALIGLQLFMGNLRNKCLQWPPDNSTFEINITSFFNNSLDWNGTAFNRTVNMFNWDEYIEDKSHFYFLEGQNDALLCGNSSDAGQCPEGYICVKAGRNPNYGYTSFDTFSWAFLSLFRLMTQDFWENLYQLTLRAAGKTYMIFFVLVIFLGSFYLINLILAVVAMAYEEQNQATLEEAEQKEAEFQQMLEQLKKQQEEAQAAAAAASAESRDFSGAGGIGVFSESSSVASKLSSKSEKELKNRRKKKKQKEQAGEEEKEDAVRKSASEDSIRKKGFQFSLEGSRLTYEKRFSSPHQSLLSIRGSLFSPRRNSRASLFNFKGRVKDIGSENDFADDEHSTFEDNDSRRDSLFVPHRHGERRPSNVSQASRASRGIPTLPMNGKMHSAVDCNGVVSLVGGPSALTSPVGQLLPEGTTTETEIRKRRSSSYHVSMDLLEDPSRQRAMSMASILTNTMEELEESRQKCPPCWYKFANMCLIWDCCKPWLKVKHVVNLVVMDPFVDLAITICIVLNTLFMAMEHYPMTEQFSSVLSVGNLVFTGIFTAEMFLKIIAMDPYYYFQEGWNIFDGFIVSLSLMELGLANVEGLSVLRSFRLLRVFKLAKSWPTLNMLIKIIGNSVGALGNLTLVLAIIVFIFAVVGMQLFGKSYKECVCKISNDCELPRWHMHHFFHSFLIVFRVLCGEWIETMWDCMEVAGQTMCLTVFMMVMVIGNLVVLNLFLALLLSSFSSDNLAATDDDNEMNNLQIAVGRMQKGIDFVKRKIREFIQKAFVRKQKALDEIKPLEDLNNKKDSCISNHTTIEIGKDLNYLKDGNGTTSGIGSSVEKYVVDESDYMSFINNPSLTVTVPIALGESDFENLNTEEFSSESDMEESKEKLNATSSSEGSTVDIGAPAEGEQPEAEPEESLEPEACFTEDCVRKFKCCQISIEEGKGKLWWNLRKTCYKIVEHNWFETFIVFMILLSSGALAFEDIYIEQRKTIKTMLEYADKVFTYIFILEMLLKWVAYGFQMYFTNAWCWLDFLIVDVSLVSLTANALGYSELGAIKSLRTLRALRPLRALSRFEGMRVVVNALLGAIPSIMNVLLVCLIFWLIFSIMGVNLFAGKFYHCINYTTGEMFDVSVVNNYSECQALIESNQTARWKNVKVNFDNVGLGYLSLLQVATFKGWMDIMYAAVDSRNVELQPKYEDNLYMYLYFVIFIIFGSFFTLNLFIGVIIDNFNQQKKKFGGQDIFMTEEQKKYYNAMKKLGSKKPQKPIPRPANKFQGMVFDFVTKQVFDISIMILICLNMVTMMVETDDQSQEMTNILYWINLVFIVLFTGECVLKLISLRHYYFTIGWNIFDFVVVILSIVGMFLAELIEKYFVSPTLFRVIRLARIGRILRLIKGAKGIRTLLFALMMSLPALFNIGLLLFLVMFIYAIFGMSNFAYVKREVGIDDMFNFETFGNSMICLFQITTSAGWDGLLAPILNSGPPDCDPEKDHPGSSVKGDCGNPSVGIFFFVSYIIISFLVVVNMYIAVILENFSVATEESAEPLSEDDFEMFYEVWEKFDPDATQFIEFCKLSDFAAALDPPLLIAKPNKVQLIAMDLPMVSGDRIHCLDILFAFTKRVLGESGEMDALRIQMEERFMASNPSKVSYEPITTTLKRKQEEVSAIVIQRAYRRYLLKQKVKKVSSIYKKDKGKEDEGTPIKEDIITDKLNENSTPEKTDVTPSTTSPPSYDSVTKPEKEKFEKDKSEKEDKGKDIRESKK

SMILES: CCN(CC)CC(=O)Nc1c(C)cccc1C [lidocaine]
- class of pH-dependence pattern (cluster analysis): Class A
- τoffset [1]: 8.49 s
- τonset [1]: 6.17 s
- τonset [2]: 5.20 s
- Kd [3]: 1670 µM
- Kd [4]: 917 µM
- τoffset [5]: 7.59 s
- τonset [5]: 5.14 s
- τonset [6]: 5.20 s
- Kd [7]: 1030 µM
- Kd [8]: 806 µM
- τoffset [9]: 5.98 s
- τonset [9]: 4.86 s
- τonset [10]: 5.60 s
- Kd [11]: 677 µM
- Kd [12]: 515 µM
- Reversibility (pH=6.0, cc 300 mM): 0.66
- Kd [13]: 917 µM
- Kd (pH=6.0, cc 1000 mM, read-out: Apparent Affinity): 1670 µM
- Kd [14]: 806 µM
- Kd (pH=7.3, cc 1000 mM, read-out: Apparent Affinity): 1030 µM
- Kd [15]: 515 µM
- Kd (pH=8.6, cc 1000 mM, read-out: Apparent Affinity): 677 µM

SMILES: CC12CC3CC(C)(C1)CC(N)(C3)C2 [memantine]
- class of pH-dependence pattern (cluster analysis): Class F
- Ratio Reversibility (pH 6.0/7.3, cc 30 mM): 0.946
- Ratio Tau Offset (pH 6.0/7.3, cc 30 mM): 1.093
- Ratio Tau Onset (pH 6.0/7.3, cc 30 mM): 0.877
- log Ratio App Aff (pH 6.0/7.3, cc 30 mM): 0.255
- Ratio Reversibility (pH 6.0/7.3, cc 100 mM): 0.974
- Ratio Tau Offset (pH 6.0/7.3, cc 100 mM): 0.656
- Ratio Tau Onset (pH 6.0/7.3, cc 100 mM): 1.032
- log Ratio App Aff (pH 6.0/7.3, cc 100 mM): 0.109
- Ratio Reversibility (pH 6.0/8.6, cc 30 mM): 1.464
- Ratio Tau Offset (pH 6.0/8.6, cc 30 mM): 1.000
- Ratio Tau Onset (pH 6.0/8.6, cc 30 mM): 0.688
- log Ratio App Aff (pH 6.0/8.6, cc 30 mM): 0.915
- Ratio Reversibility (pH 6.0/8.6, cc 100 mM): 1.593
- Ratio Tau Offset (pH 6.0/8.6, cc 100 mM): 0.550
- Ratio Tau Onset (pH 6.0/8.6, cc 100 mM): 0.842
- log Ratio App Aff (pH 6.0/8.6, cc 100 mM): 0.840
- τoffset [1]: 23.60 s
- τonset [1]: 12.80 s
- τoffset [2]: 12.20 s
- τonset [2]: 12.80 s
- Kd [3]: 303 µM
- Kd [4]: 394 µM
- Ratio Reversibility (pH 7.3/8.6, cc 30 mM): 1.547
- Ratio Tau Offset (pH 7.3/8.6, cc 30 mM): 0.915
- Ratio Tau Onset (pH 7.3/8.6, cc 30 mM): 0.785
- log Ratio App Aff (pH 7.3/8.6, cc 30 mM): 0.661
- Ratio Reversibility (pH 7.3/8.6, cc 100 mM): 1.636
- Ratio Tau Offset (pH 7.3/8.6, cc 100 mM): 0.838
- Ratio Tau Onset (pH 7.3/8.6, cc 100 mM): 0.816
- log Ratio App Aff (pH 7.3/8.6, cc 100 mM): 0.731
- τoffset [5]: 21.60 s
- τonset [5]: 14.60 s
- τoffset [6]: 18.60 s
- τonset [6]: 12.40 s
- Kd [7]: 236 µM
- Kd [8]: 219 µM
- τoffset [9]: 23.60 s
- τonset [9]: 18.60 s
- τoffset [10]: 22.20 s
- τonset [10]: 15.20 s
- Kd [11]: 43.8 µM
- Kd [12]: 47.9 µM
- KD app, effect of acidic medium: MEM,MEX,TOL↑
- Reversibility (pH=6.0, cc 30 mM): 0.82
- Kd (pH=6.0, cc 30 mM, read-out: Apparent Affinity): 394 µM
- Reversibility (pH=6.0, cc 100 mM): 0.89
- Kd (pH=6.0, cc 100 mM, read-out: Apparent Affinity): 303 µM
- Reversibility (pH=7.3, cc 30 mM): 0.86
- Kd (pH=7.3, cc 30 mM, read-out: Apparent Affinity): 219 µM
- Reversibility (pH=7.3, cc 100 mM): 0.92
- Kd (pH=7.3, cc 100 mM, read-out: Apparent Affinity): 236 µM
- Reversibility (pH=8.6, cc 30 mM): 0.56
- Kd (pH=8.6, cc 30 mM, read-out: Apparent Affinity): 47.9 µM
- Reversibility (pH=8.6, cc 100 mM): 0.56
- Kd (pH=8.6, cc 100 mM, read-out: Apparent Affinity): 43.8 µM

SMILES: Cc1cccc(C)c1OCC(C)N (stereo not shown) [mexiletine]
- class of pH-dependence pattern (cluster analysis): Class F
- effect of alkalic pH on onset/offset kinetics (in words): acceleration of onset
- Ratio Reversibility (pH 6.0/7.3, cc 300 mM): 0.987
- Ratio Tau Offset (pH 6.0/7.3, cc 300 mM): 1.071
- Ratio Tau Onset (pH 6.0/7.3, cc 300 mM): 1.162
- log Ratio App Aff (pH 6.0/7.3, cc 300 mM): 0.268
- Ratio Reversibility (pH 6.0/8.6, cc 300 mM): 1.300
- Ratio Tau Offset (pH 6.0/8.6, cc 300 mM): 0.938
- Ratio Tau Onset (pH 6.0/8.6, cc 300 mM): 1.411
- log Ratio App Aff (pH 6.0/8.6, cc 300 mM): 0.786
- τoffset [1]: 21.00 s
- τonset [1]: 15.80 s
- Kd [4]: 350 µM
- Ratio Reversibility (pH 7.3/8.6, cc 300 mM): 1.317
- Ratio Tau Offset (pH 7.3/8.6, cc 300 mM): 0.875
- Ratio Tau Onset (pH 7.3/8.6, cc 300 mM): 1.214
- log Ratio App Aff (pH 7.3/8.6, cc 300 mM): 0.518
- τoffset [5]: 19.60 s
- τonset [5]: 13.60 s
- Kd [8]: 189 µM
- τoffset [9]: 22.40 s
- τonset [9]: 11.20 s
- Kd [12]: 57.3 µM
- KD app, effect of acidic medium: MEM,MEX,TOL↑
- Reversibility (pH=6.0, cc 300 mM): 0.78
- Kd [13]: 350 µM
- Reversibility (pH=7.3, cc 300 mM): 0.79
- Kd [14]: 189 µM
- Reversibility (pH=8.6, cc 300 mM): 0.60
- Kd [15]: 57.3 µM
